Among the data in patent US11739098B2 (BRISTOL-MYERS SQUIBB COMPANY, priority 2017, dated 2023) are IC50 values, retold here.

Molecules are shown by their SMILES.

Common to all, as to format: cell-based
For one assay, the target named is T1, human TLR7 (Homo sapiens, UniProt Q9NYK1).
T1 construct: host or cells: HEK-Blue cells (HEK293-derived reporter line)
T1 sequence (Q9NYK1 27-1049): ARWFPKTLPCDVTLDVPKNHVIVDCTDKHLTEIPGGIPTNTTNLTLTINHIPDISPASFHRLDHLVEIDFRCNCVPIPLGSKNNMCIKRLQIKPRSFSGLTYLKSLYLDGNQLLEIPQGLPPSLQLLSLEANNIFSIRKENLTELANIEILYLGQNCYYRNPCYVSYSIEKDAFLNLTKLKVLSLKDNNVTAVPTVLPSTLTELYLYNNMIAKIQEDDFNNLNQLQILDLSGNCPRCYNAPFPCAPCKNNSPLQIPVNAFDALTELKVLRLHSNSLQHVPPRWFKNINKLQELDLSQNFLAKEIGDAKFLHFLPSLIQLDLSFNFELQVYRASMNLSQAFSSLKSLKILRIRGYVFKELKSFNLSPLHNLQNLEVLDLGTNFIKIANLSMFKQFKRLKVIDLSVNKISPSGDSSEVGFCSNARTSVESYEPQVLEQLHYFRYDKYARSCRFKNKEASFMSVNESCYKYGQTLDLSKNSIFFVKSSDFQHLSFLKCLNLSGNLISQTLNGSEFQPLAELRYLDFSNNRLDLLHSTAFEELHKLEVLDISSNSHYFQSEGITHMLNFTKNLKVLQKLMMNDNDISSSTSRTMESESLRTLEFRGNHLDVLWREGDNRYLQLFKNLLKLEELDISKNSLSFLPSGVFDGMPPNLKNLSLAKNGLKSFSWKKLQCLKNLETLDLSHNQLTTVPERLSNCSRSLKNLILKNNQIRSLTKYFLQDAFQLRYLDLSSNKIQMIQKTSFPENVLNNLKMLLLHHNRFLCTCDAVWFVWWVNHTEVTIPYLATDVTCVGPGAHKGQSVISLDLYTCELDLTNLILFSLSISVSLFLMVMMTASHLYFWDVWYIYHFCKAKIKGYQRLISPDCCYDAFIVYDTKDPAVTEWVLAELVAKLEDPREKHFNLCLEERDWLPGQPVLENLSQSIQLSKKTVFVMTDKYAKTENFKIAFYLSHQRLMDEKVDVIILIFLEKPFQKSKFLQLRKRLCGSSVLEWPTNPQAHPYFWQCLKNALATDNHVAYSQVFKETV
Description: TLR7 inhibition reporter assay (HEK-Blue cells, SEAP reporter, gardiquimod stimulation). The settings on record: HEK-Blue cells overexpressing human TLR7, SEAP reporter, gardiquimod 7.5 μM. In a few lines:
(§1)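 Cells seeded per well (15000 TLR7, 20,000 TLR8, 25,000 TLR9); compound added over 0.05 nM–50 μM for 30 min at room temperature; agonist added (TLR7 gardiquimod 7.5 μM, TLR8 R848 15.9 μM, TLR9 ODN2006 5 nM); 22 h at 37 °C; SEAP measured; percent inhibition calculated.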

The target in the next assay is T2, human TLR8 (Homo sapiens, UniProt Q9NR97).
T2 construct: host or cells: HEK-Blue cells (HEK293-derived reporter line)
T2 sequence (Q9NR97 27-1041): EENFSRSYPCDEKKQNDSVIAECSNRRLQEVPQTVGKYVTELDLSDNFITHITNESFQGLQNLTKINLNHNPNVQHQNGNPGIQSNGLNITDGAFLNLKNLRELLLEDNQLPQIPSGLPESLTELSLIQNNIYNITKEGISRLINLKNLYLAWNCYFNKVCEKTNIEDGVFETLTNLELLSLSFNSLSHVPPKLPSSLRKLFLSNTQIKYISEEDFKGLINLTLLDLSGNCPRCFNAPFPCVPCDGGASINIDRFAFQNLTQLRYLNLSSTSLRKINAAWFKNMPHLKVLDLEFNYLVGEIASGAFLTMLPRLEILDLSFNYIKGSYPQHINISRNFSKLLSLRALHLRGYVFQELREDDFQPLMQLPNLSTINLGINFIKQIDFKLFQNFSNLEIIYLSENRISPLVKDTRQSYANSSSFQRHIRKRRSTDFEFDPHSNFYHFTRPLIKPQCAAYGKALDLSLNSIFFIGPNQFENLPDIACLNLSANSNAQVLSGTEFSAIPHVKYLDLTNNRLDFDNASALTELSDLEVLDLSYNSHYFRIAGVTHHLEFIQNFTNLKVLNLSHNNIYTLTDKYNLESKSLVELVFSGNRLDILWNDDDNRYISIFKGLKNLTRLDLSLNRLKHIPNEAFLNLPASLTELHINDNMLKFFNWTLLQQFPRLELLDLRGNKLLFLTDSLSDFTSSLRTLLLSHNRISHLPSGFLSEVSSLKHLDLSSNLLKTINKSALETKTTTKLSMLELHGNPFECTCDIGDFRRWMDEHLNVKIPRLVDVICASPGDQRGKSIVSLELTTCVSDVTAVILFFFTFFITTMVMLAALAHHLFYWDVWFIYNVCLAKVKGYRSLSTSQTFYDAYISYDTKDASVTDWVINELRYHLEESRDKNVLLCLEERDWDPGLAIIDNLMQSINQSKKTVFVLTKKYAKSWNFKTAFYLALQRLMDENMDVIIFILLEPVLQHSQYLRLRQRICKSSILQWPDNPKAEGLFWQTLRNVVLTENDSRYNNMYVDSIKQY
Put plainly: TLR8 inhibition reporter assay (HEK-Blue cells, SEAP reporter, R848 stimulation). The settings on record: HEK-Blue cells overexpressing human TLR8, SEAP reporter, R848 15.9 μM. In short, it runs like this: as §1

In a further assay the target is T3, human TLR9 (Homo sapiens, UniProt Q9NR96).
T3 construct: host or cells: HEK-Blue cells (HEK293-derived reporter line)
T3 sequence (Q9NR96 26-1032): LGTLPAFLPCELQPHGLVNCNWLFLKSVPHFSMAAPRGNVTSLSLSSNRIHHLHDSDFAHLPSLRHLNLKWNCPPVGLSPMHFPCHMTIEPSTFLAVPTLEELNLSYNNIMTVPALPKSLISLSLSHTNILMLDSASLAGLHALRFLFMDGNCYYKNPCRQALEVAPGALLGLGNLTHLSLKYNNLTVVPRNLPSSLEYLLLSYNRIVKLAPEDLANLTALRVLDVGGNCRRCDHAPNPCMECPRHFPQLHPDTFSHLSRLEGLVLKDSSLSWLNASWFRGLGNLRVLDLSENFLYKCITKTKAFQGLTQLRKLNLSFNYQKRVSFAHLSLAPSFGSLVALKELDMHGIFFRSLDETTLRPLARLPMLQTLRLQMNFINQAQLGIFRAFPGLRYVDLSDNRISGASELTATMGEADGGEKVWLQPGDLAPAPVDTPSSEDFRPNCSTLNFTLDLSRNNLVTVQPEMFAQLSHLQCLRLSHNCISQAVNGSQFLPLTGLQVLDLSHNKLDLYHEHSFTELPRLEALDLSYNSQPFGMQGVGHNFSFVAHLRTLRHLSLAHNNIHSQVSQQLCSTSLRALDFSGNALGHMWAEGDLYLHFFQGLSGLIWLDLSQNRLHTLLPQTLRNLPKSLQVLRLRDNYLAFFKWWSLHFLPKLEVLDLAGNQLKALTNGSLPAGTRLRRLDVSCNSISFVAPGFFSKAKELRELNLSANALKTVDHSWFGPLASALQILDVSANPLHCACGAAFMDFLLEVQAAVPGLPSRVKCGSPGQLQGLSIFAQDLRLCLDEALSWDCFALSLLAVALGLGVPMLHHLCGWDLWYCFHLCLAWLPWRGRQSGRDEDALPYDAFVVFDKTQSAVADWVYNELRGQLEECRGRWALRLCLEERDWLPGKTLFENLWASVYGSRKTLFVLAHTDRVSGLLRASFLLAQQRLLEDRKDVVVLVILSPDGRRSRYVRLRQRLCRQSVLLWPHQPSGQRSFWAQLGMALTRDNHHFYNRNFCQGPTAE
Put plainly: TLR9 inhibition reporter assay (HEK-Blue cells, SEAP reporter, ODN2006 stimulation). The conditions noted are these: HEK-Blue cells overexpressing human TLR9, SEAP reporter, ODN2006 5 nM. In a few lines: as §1

In the case of `CC(C)c1c(-c2cccn3ncnc23)[nH]c2ccc(C3CCN(CC(=O)N(C)C)CC3)cc12` [Example 362, 2-(4-(2-5 ([1,2,4]triazolo[1,5-a]pyridin-8-yl)-3-isopropyl-1H-indol-5-yl)piperidin-1-yl)-N,N-dimethylacetamide], the IC50 on human TLR7 lay in the range of 100 to 1000 nM; against human TLR8, 100 to 1000 nM; against human TLR9, 1000 to 50000 nM.
Consider `CC(C)c1c(-c2cnc3nccn3c2)[nH]c2ccc(C3CCN(CC(=O)N(C)C)CC3)cc12` [Example 363, 2-(4-(2-(imidazo[1,2-a]pyrimidin-6-yl)-3-isopropyl-1H-indol-5-yl)piperidin-1-yl)-N,N-dimethylacetamide], for which the IC50 at human TLR7, against human TLR8 and on human TLR9 was 100 to 1000 nM throughout.
Take `CNC(=O)CN1CCC(c2ccc3[nH]c(-c4cc(C)c5c(cnn5C)c4)c(C(C)C)c3c2)CC1` [Example 364, 2-(4-(2-(1,7-dimethyl-1H-indazol-5-yl)-3-isopropyl-1H-indol-5-yl)piperidin-1-yl)-N-methylacetamide]: the IC50 on human TLR7 is 100 to 1000 nM; on human TLR8, more than 3130 nM; against human TLR9 it was 1000 to 50000 nM.
On to `CNC(=O)CN1CCC(c2ccc3[nH]c(-c4ccc5c(cnn5C)c4C)c(C(C)C)c3c2)CC1` [Example 365, 2-(4-(2-(1,4-dimethyl-1H-indazol-5-yl)-3-isopropyl-1H-indol-5-yl)piperidin-1-yl)-N-methylacetamide], for which the half-maximal inhibitory concentration (IC50) against human TLR7 was less than 100 nM; against human TLR8, 100 to 1000 nM; on human TLR9 it was more than 50000 nM.
Consider `CNC(=O)CN1CCC(c2ccc3[nH]c(-c4cnc5c(cnn5C)c4)c(C(C)C)c3c2)CC1` [Example 366, 2-(4-(3-isopropyl-2-(1-methyl-1H-pyrazolo[3,4-b]pyridin-5-yl)-1H-indol-5-yl)piperidin-1-yl)-N-methylacetamide], for which the IC50 against human TLR7 is less than 100 nM; on human TLR8 it was less than 100 nM; against human TLR9 it was 1000 to 50000 nM.
Consider `CC(C)c1c(-c2cnc3c(cnn3C)c2)[nH]c2ccc(C3CCN(CC(=O)N(C)C)CC3)cc12` [Example 367, 2-(4-(3-isopropyl-2-(1-methyl-1H-pyrazolo[3,4-b]pyridin-5-yl)-1H-indol-5-yl)piperidin-1-yl)-N,N-dimethylacetamide], for which the IC50 against human TLR7 is less than 100 nM; on human TLR8, less than 100 nM; against human TLR9, 1000 to 50000 nM.
For the molecule `CNC(=O)CN1CCC(c2ccc3[nH]c(-c4cnc5nn(C)cc5c4)c(C(C)C)c3c2)CC1` [Example 368, 2-(4-(3-isopropyl-2-(2-methyl-2H-pyrazolo[3,4-b]pyridin-5-yl)-1H-indol-5-yl)piperidin-1-yl)-N-methylacetamide], the IC50 against human TLR7 was 1000 to 50000 nM; on human TLR8 it was more than 3130 nM; against human TLR9, 1000 to 50000 nM.
Take `CC(C)c1c(-c2ccc(C#N)c3ncccc23)[nH]c2ccc(C3CCN(CC(N)=O)CC3)cc12` [Example 369, 2-(4-(2-(8-cyanoquinolin-5-yl)-3-isopropyl-1H-indol-5-yl)piperidin-1-yl)acetamide]: the results for the IC50 against human TLR7, against human TLR8 and at human TLR9 were less than 100 nM, less than 100 nM and 1000 to 50000 nM, respectively.
Consider `CC(C)c1c(-c2ccc(C#N)c3ncccc23)[nH]c2ccc(C3CCN(CC(=O)N(C)C)CC3)cc12` [Example 370, 2-(4-(2-(8-cyanoquinolin-5-yl)-3-isopropyl-1H-indol-5-yl)piperidin-1-yl)-N,N-dimethylacetamide], for which the values for the half-inhibitory concentration (IC50) against human TLR7, at human TLR8 and against human TLR9 were less than 100 nM, less than 100 nM and 1000 to 50000 nM, respectively.
Consider `CNC(=O)CN1CCC(c2ccc3[nH]c(-c4ccc(C#N)c5ncccc45)c(C(C)C)c3c2)CC1` [Example 371, 2-(4-(2-(8-cyanoquinolin-5-yl)-3-isopropyl-1H-indol-5-yl)piperidin-1-yl)-N-methylacetamide], for which the figures for the IC50 at human TLR7, on human TLR8 and against human TLR9 were less than 100 nM, less than 100 nM and 1000 to 50000 nM, respectively.
